Laboratory results from US20260027116A1, “Methods of Treating Chronic Graft-Versus-Host Disease Following Allogeneic Hematopoietic Stem Cell Transplantation” (Kadmon Corporation, LLC, priority 2022, published 2026).

System: lung function
Assay: Example 1: percent predicted HGB corrected DLco change from baseline
Format: in vivo, human
Details: mean (SD)
Description: Change From Baseline in Percent Predicted Hemoglobin (HGB) Corrected Diffusing Capacity of Lung for Carbon Monoxide (DLco) at Each Specified Time Points. DLco is a measurement of the ability of the lungs to transfer gases from the air to the blood. Change from baseline in diffusing capacity of the lung for carbon monoxide (percent predicted hemoglobin level corrected) was reported for this measure. Baseline value was defined as valid and last non-missing value obtained within 28 days prior to participant receiving first study medication. EOT visit was performed within 3 days after the participant's last dose of study drug. […] Analysis was performed on mITT population. Here, ‘number analyzed’=participants with available data for each specified category. Here, ‘O’ in the number analyzed field signifies that none of the participants were available for the analysis at the specified time points.

Compound: CC(C)NC(=O)COc1cccc(-c2nc(Nc3ccc4[nH]ncc4c3)c3ccccc3n2)c1 [Belumosudil, 2-{3-[4-(1H-indazol-5-ylamino)-2-quinazolinyl]phenoxy}-N-(propan-2-yl) acetamide]
- Change From Baseline in Percent Predicted Hemoglobin (HGB) Corrected Diffusing Capacity of Lung for Carbon Monoxide (DLco) (Cohort 2: 200 mg BID, Cycle 15, Day 1): 1.125 (5.927) Percent Predicted HGB Corrected DLco
- Change From Baseline in Percent Predicted Hemoglobin (HGB) Corrected Diffusing Capacity of Lung for Carbon Monoxide (DLco) (Cohort 2: 200 mg BID, Cycle 16, Day 1): −6.618 (15.443) Percent Predicted HGB Corrected DLco
- Change From Baseline in Percent Predicted Hemoglobin (HGB) Corrected Diffusing Capacity of Lung for Carbon Monoxide (DLco) (Cohort 2: 200 mg BID, Cycle 17, Day 1): 8.458 (6.229) Percent Predicted HGB Corrected DLco
- Change From Baseline in Percent Predicted Hemoglobin (HGB) Corrected Diffusing Capacity of Lung for Carbon Monoxide (DLco) (Cohort 2: 200 mg BID, Cycle 18, Day 1): 15.543 (11.753) Percent Predicted HGB Corrected DLco
- Change From Baseline in Percent Predicted Hemoglobin (HGB) Corrected Diffusing Capacity of Lung for Carbon Monoxide (DLco) (Cohort 2: 200 mg BID, Cycle 19, Day 1): 1.824 (8.539) Percent Predicted HGB Corrected DLco
- Change From Baseline in Percent Predicted Hemoglobin (HGB) Corrected Diffusing Capacity of Lung for Carbon Monoxide (DLco) (Cohort 2: 200 mg BID, Cycle 20, Day 1): −14.692 (—) Percent Predicted HGB Corrected DLco
- Change From Baseline in Percent Predicted Hemoglobin (HGB) Corrected Diffusing Capacity of Lung for Carbon Monoxide (DLco) (Cohort 2: 200 mg BID, Cycle 21, Day 1): −10.661 (—) Percent Predicted HGB Corrected DLco
- Change From Baseline in Percent Predicted Hemoglobin (HGB) Corrected Diffusing Capacity of Lung for Carbon Monoxide (DLco) (Cohort 2: 200 mg BID, Cycle 22, Day 1): 3.347 (3.560) Percent Predicted HGB Corrected DLco
- Change From Baseline in Percent Predicted Hemoglobin (HGB) Corrected Diffusing Capacity of Lung for Carbon Monoxide (DLco) (Cohort 2: 200 mg BID, Cycle 23, Day 1): −15.184 (20.181) Percent Predicted HGB Corrected DLco
- Change From Baseline in Percent Predicted Hemoglobin (HGB) Corrected Diffusing Capacity of Lung for Carbon Monoxide (DLco) (Cohort 2: 200 mg BID, Cycle 24, Day 1): −18.095 (—) Percent Predicted HGB Corrected DLco
- Change From Baseline in Percent Predicted Hemoglobin (HGB) Corrected Diffusing Capacity of Lung for Carbon Monoxide (DLco) (Cohort 2: 200 mg BID, Cycle 25, Day 1): 6.289 (2.469) Percent Predicted HGB Corrected DLco
- Change From Baseline in Percent Predicted Hemoglobin (HGB) Corrected Diffusing Capacity of Lung for Carbon Monoxide (DLco) (Cohort 2: 200 mg BID, Cycle 27, Day 1): −9.914 (15.387) Percent Predicted HGB Corrected DLco
- Change From Baseline in Percent Predicted Hemoglobin (HGB) Corrected Diffusing Capacity of Lung for Carbon Monoxide (DLco) (Cohort 2: 200 mg BID, Cycle 29, Day 1): −18.814 (24.960) Percent Predicted HGB Corrected DLco
- Change From Baseline in Percent Predicted Hemoglobin (HGB) Corrected Diffusing Capacity of Lung for Carbon Monoxide (DLco) (Cohort 2: 200 mg BID, Cycle 31, Day 1): −0.800 (17.528) Percent Predicted HGB Corrected DLco
- Change From Baseline in Percent Predicted Hemoglobin (HGB) Corrected Diffusing Capacity of Lung for Carbon Monoxide (DLco) (Cohort 2: 200 mg BID, Cycle 33, Day 1): −5.962 (10.550) Percent Predicted HGB Corrected DLco
- Change From Baseline in Percent Predicted Hemoglobin (HGB) Corrected Diffusing Capacity of Lung for Carbon Monoxide (DLco) (Cohort 2: 200 mg BID, Cycle 35, Day 1): −0.426 (6.677) Percent Predicted HGB Corrected DLco
- Change From Baseline in Percent Predicted Hemoglobin (HGB) Corrected Diffusing Capacity of Lung for Carbon Monoxide (DLco) (Cohort 2: 200 mg BID, Cycle 37, Day 1): −19.228 (—) Percent Predicted HGB Corrected DLco
- Change From Baseline in Percent Predicted Hemoglobin (HGB) Corrected Diffusing Capacity of Lung for Carbon Monoxide (DLco) (Cohort 2: 200 mg BID, Cycle 39, Day 1): −6.813 (12.810) Percent Predicted HGB Corrected DLco
- Change From Baseline in Percent Predicted Hemoglobin (HGB) Corrected Diffusing Capacity of Lung for Carbon Monoxide (DLco) (Cohort 2: 200 mg BID, Cycle 43, Day 1): 8.775 (—) Percent Predicted HGB Corrected DLco
- Change From Baseline in Percent Predicted Hemoglobin (HGB) Corrected Diffusing Capacity of Lung for Carbon Monoxide (DLco) (Cohort 2: 200 mg BID, EOT): 0.985 (5.919) Percent Predicted HGB Corrected DLco
- Change From Baseline in Percent Predicted Hemoglobin (HGB) Corrected Diffusing Capacity of Lung for Carbon Monoxide (DLco) (Cohort 3: 400 mg QD, Cycle 2, Day 1): −5.243 (9.830) Percent Predicted HGB Corrected DLco
- Change From Baseline in Percent Predicted Hemoglobin (HGB) Corrected Diffusing Capacity of Lung for Carbon Monoxide (DLco) (Cohort 3: 400 mg QD, Cycle 3, Day 1): −3.928 (9.492) Percent Predicted HGB Corrected DLco
- Change From Baseline in Percent Predicted Hemoglobin (HGB) Corrected Diffusing Capacity of Lung for Carbon Monoxide (DLco) (Cohort 3: 400 mg QD, Cycle 4, Day 1): 0.278 (9.683) Percent Predicted HGB Corrected DLco
- Change From Baseline in Percent Predicted Hemoglobin (HGB) Corrected Diffusing Capacity of Lung for Carbon Monoxide (DLco) (Cohort 3: 400 mg QD, Cycle 5, Day 1): −4.111 (9.138) Percent Predicted HGB Corrected DLco
- Change From Baseline in Percent Predicted Hemoglobin (HGB) Corrected Diffusing Capacity of Lung for Carbon Monoxide (DLco) (Cohort 3: 400 mg QD, Cycle 6, Day 1): −3.143 (10.385) Percent Predicted HGB Corrected DLco
- Change From Baseline in Percent Predicted Hemoglobin (HGB) Corrected Diffusing Capacity of Lung for Carbon Monoxide (DLco) (Cohort 3: 400 mg QD, Cycle 7, Day 1): −4.275 (11.464) Percent Predicted HGB Corrected DLco
- Change From Baseline in Percent Predicted Hemoglobin (HGB) Corrected Diffusing Capacity of Lung for Carbon Monoxide (DLco) (Cohort 3: 400 mg QD, Cycle 8, Day 1): −3.787 (11.983) Percent Predicted HGB Corrected DLco
- Change From Baseline in Percent Predicted Hemoglobin (HGB) Corrected Diffusing Capacity of Lung for Carbon Monoxide (DLco) (Cohort 3: 400 mg QD, Cycle 9, Day 1): −2.540 (11.897) Percent Predicted HGB Corrected DLco
- Change From Baseline in Percent Predicted Hemoglobin (HGB) Corrected Diffusing Capacity of Lung for Carbon Monoxide (DLco) (Cohort 3: 400 mg QD, Cycle 10, Day 1): 1.328 (8.887) Percent Predicted HGB Corrected DLco
- Change From Baseline in Percent Predicted Hemoglobin (HGB) Corrected Diffusing Capacity of Lung for Carbon Monoxide (DLco) (Cohort 3: 400 mg QD, Cycle 11, Day 1): −2.720 (10.920) Percent Predicted HGB Corrected DLco
- Change From Baseline in Percent Predicted Hemoglobin (HGB) Corrected Diffusing Capacity of Lung for Carbon Monoxide (DLco) (Cohort 3: 400 mg QD, Cycle 12, Day 1): −1.378 (6.364) Percent Predicted HGB Corrected DLco
- Change From Baseline in Percent Predicted Hemoglobin (HGB) Corrected Diffusing Capacity of Lung for Carbon Monoxide (DLco) (Cohort 3: 400 mg QD, Cycle 13, Day 1): 2.091 (13.290) Percent Predicted HGB Corrected DLco
- Change From Baseline in Percent Predicted Hemoglobin (HGB) Corrected Diffusing Capacity of Lung for Carbon Monoxide (DLco) (Cohort 3: 400 mg QD, Cycle 14, Day 1): 0.309 (11.651) Percent Predicted HGB Corrected DLco
- Change From Baseline in Percent Predicted Hemoglobin (HGB) Corrected Diffusing Capacity of Lung for Carbon Monoxide (DLco) (Cohort 3: 400 mg QD, Cycle 15, Day 1): −5.309 (11.514) Percent Predicted HGB Corrected DLco
- Change From Baseline in Percent Predicted Hemoglobin (HGB) Corrected Diffusing Capacity of Lung for Carbon Monoxide (DLco) (Cohort 3: 400 mg QD, Cycle 16, Day 1): −6.840 (15.053) Percent Predicted HGB Corrected DLco
- Change From Baseline in Percent Predicted Hemoglobin (HGB) Corrected Diffusing Capacity of Lung for Carbon Monoxide (DLco) (Cohort 3: 400 mg QD, Cycle 17, Day 1): −10.865 (13.346) Percent Predicted HGB Corrected DLco
- Change From Baseline in Percent Predicted Hemoglobin (HGB) Corrected Diffusing Capacity of Lung for Carbon Monoxide (DLco) (Cohort 3: 400 mg QD, Cycle 18, Day 1): −3.174 (3.106) Percent Predicted HGB Corrected DLco
- Change From Baseline in Percent Predicted Hemoglobin (HGB) Corrected Diffusing Capacity of Lung for Carbon Monoxide (DLco) (Cohort 3: 400 mg QD, Cycle 19, Day 1): −2.020 (2.436) Percent Predicted HGB Corrected DLco
- Change From Baseline in Percent Predicted Hemoglobin (HGB) Corrected Diffusing Capacity of Lung for Carbon Monoxide (DLco) (Cohort 3: 400 mg QD, Cycle 20, Day 1): −13.517 (5.936) Percent Predicted HGB Corrected DLco
- Change From Baseline in Percent Predicted Hemoglobin (HGB) Corrected Diffusing Capacity of Lung for Carbon Monoxide (DLco) (Cohort 3: 400 mg QD, Cycle 21, Day 1): −12.354 (12.800) Percent Predicted HGB Corrected DLco
- Change From Baseline in Percent Predicted Hemoglobin (HGB) Corrected Diffusing Capacity of Lung for Carbon Monoxide (DLco) (Cohort 3: 400 mg QD, Cycle 22, Day 1): −17.222 (16.947) Percent Predicted HGB Corrected DLco
- Change From Baseline in Percent Predicted Hemoglobin (HGB) Corrected Diffusing Capacity of Lung for Carbon Monoxide (DLco) (Cohort 3: 400 mg QD, Cycle 23, Day 1): −2.219 (10.614) Percent Predicted HGB Corrected DLco
- Change From Baseline in Percent Predicted Hemoglobin (HGB) Corrected Diffusing Capacity of Lung for Carbon Monoxide (DLco) (Cohort 3: 400 mg QD, Cycle 24, Day 1): −11.430 (—) Percent Predicted HGB Corrected DLco
- Change From Baseline in Percent Predicted Hemoglobin (HGB) Corrected Diffusing Capacity of Lung for Carbon Monoxide (DLco) (Cohort 3: 400 mg QD, Cycle 25, Day 1): −13.392 (—) Percent Predicted HGB Corrected DLco
- Change From Baseline in Percent Predicted Hemoglobin (HGB) Corrected Diffusing Capacity of Lung for Carbon Monoxide (DLco) (Cohort 3: 400 mg QD, Cycle 27, Day 1): −11.154 (—) Percent Predicted HGB Corrected DLco
- Change From Baseline in Percent Predicted Hemoglobin (HGB) Corrected Diffusing Capacity of Lung for Carbon Monoxide (DLco) (Cohort 3: 400 mg QD, Cycle 29, Day 1): 8.613 (—) Percent Predicted HGB Corrected DLco
- Change From Baseline in Percent Predicted Hemoglobin (HGB) Corrected Diffusing Capacity of Lung for Carbon Monoxide (DLco) (Cohort 3: 400 mg QD, Cycle 31, Day 1): 10.833 (—) Percent Predicted HGB Corrected DLco
- Change From Baseline in Percent Predicted Hemoglobin (HGB) Corrected Diffusing Capacity of Lung for Carbon Monoxide (DLco) (Cohort 3: 400 mg QD, Cycle 35, Day 1): 5.088 (—) Percent Predicted HGB Corrected DLco
- Change From Baseline in Percent Predicted Hemoglobin (HGB) Corrected Diffusing Capacity of Lung for Carbon Monoxide (DLco) (Cohort 3: 400 mg QD, Cycle 36, Day 1): 10.372 (—) Percent Predicted HGB Corrected DLco
- Change From Baseline in Percent Predicted Hemoglobin (HGB) Corrected Diffusing Capacity of Lung for Carbon Monoxide (DLco) (Cohort 3: 400 mg QD, Cycle 39, Day 1): 5.902 (—) Percent Predicted HGB Corrected DLco
- Change From Baseline in Percent Predicted Hemoglobin (HGB) Corrected Diffusing Capacity of Lung for Carbon Monoxide (DLco) (Cohort 3: 400 mg QD, EOT): −10.371 (14.208) Percent Predicted HGB Corrected DLco
